In general, IC50 refers to the concentration needed to halve the response being measured. The MIC is the smallest concentration in the dilution series that meets the test's criterion for growth inhibition.

Here are results for eleven compounds from patent publication US20240382465A1, “AROMATIC ACETYLENE DERIVATIVE, AND PREPARATION METHOD THEREFOR AND USE THEREOF” (priority 2021, published 2024).

Assay [1] has as its target recombinant Pseudomonas aeruginosa LpxC (Pseudomonas aeruginosa (strain ATCC 15692 / DSM 22644 / CIP 104116 / JCM 14847 / LMG 12228 / 1C / PRS 101 / PAO1), UniProt P47205). Description: Inhibition of LpxC enzymatic activity (fluorescamine assay). The assay is classed as biochemical. As to the method:
The degree of inhibition of the enzymatic activity of recombinant Pseudomonas aeruginosa LpxC by the compounds of the present disclosure under in vitro conditions was determined using the following method.
The experimental procedure is briefly described as follows: The test compound was first dissolved in DMSO to prepare a 10 mM stock solution. The reaction was carried out in a 96-well microplate. First, 20 μL of recombinant Pseudomonas aeruginosa LpxC (purchased from Signalway Antibody, product number AP74647-2) was added to each well, with a final concentration of 5 nM. 5 μL of the compound to be tested was then added, and the compound was diluted 4 times to 8 concentration points with a concentration range of 0.61-10,000 nM. 5 μL of LpxC substrate UDP-3-O—(R-3-hydroxydecanoyl)-GlcNAc (purchased from Biosynth Carbosynth, product number: mu75071) was added, with a final concentration of the substrate of 10 μM. The plate was incubated at 25° C. for 120 minutes. Then 20 μL of 2.0 mg/mL fluorescamine (purchased from sigmaaldrich, product number: F9015, solvent: 1:1 dimethylformamide/acetonitrile) was added to the reaction system, and mixed well for 10 minutes of reaction. Finally, 50 μL of 200 mM sodium phosphate buffer (pH 8.0) was added to terminate the reaction. Reading was carried out using a microplate reader (BMG), and the excitation and emission wavelengths were 390 and 495 nm respectively. By comparing with the fluorescence intensity ratio of the control group ([…]), the percentage inhibition rate of the compound at each concentration was calculated.

The test system of another assay is E. coli ATCC 25922. Description: Antibacterial activity, MIC by broth microdilution (CLSI). The assay is classed as cell-based. To be noted: Escherichia coli, ATCC25922; E. coli ATCC 25922, 35° C., 18 to 24 hours; read-out: MIC(E. coli). Here is the method:
The in vitro minimum inhibitory concentration (MIC) was determined in accordance with the CLSI guidelines, and was measured using the broth microdilution method.
The experimental process is briefly described as follows: The test compound was dissolved in DMSO to prepare a […] stock solution, which was then prepared into 11 twice-diluted 100× high-concentration working solutions (the final concentration of the system was 64 μg/mL-0.06 μg/mL) using DMSO. The strains (K. pneumoniae ATCC13883 and E. coli ATCC 25922) frozen in −80° C. glycerol were inoculated into solid agar medium, placed in an incubator at 35° C. for 18-24 hours of incubation. After the preparation of strains was completed, an appropriate amount of solid plate culture was collected, resuspended in physiological saline, and mixed well. The bacterial suspension was adjusted to a suitable turbidity using a turbidity meter, containing approximately 1×10^8 cfu/mL bacteria. Then the bacterial suspension with the adjusted turbidity was diluted to a bacterial concentration of 5×10^5 cfu/ml using the culture medium for measurement, to complete the preparation of the inoculum solution. 198 μL of the inoculum solution was inoculated into a 96-well plate, and then added with 2 μL of a 100× high-concentration working solution of the compound. Then the 96-well plate was placed at 35° C. for 18 to 24 hours of incubation.
On the technique in general: In broth dilution the organism is exposed to a series of concentrations in liquid medium.

Setting [2] is: recombinant P. aeruginosa LpxC 5 nM, substrate 10 μM, 25° C., 120 minutes, read-out: IC50.

In brackets after ≈: the same amount, converted by molar mass. Read-outs that look alike come from different tables or passages of the source.

On to `C[C@H](O)c1nccn1Cc1cc(-c2ccc(C#Cc3cccc(OCC(=O)O)c3)cc2)on1` [Example 110, (S)-2-(3-((4-(3-((2-(1-hydroxyethyl)-1H-imidazol-1-yl)methyl)isoxazol-5-yl)phenyl)ethynyl)phenoxy)acetic acid], for which, in assay [1] (setting [2]), the half-maximal inhibitory concentration (IC50) is 11.2 nM. Moreover, in the assay with E. coli ATCC 25922, the MIC came to 8 µg/mL (≈ 18 µM).

In the case of `C[C@H](O)c1nccn1Cc1cc(-c2ccc(C#Cc3ccc(CN4CCNCC4)cc3)cc2)on1` [Example 96, (S)-1-(1-((5-(4-((4-(piperazin-1-ylmethyl)phenyl)ethynyl)phenyl)isoxazol-3-yl)methyl)-1H-imidazol-2-yl)ethan-1-ol], in assay [1] (setting [2]), the IC50 turned out to be 15.9 nM. Moreover, the MIC with E. coli ATCC 25922 came out at 4 µg/mL (≈ 8.55 µM).

On to `C[C@H](O)c1nccn1Cc1cc(-c2ccc(C#Cc3ccc(C(=O)NCCC(=O)O)cc3)cc2)on1` [Example 73, (S)-3-(4-((4-(3-((2-(1-hydroxyethyl)-1H-imidazol-1-yl)methyl)isoxazol-5-yl)phenyl)ethynyl)benzamido)propanoic acid], for which, in assay [1] (setting [2]), the 50% inhibitory concentration (IC50) came to 33.1 nM. For the same compound, the minimal inhibitory concentration (MIC) in the assay with E. coli ATCC 25922 worked out at 8 µg/mL (≈ 16.5 µM).

For `CCN(CC)CCNC(=O)c1ccc(C#Cc2ccc(-c3cc(Cn4ccnc4[C@H](C)O)no3)cc2)cc1` [Example 70, (S)-N-(2-(diethylamino)ethyl)-4-((4-(3-((2-(1-hydroxyethyl)-1H-imidazol-1-yl)methyl)isoxazol-5-yl)phenyl)ethynyl) benzamide], in assay [1] (setting [2]), the IC50 amounted to 12.9 nM. In addition, the MIC with E. coli ATCC 25922 was determined as 8 µg/mL (≈ 15.6 µM).

Regarding `C[C@H](O)c1nccn1Cc1cc(-c2ccc(C#Cc3ccc(C(=O)NCCN(C)C)cc3)cc2)on1` [Example 71, (S)-N-(2-(dimethylamino)ethyl)-4-((4-(3-((2-(1-hydroxyethyl)-1H-imidazol-1-yl)methyl)isoxazol-5-yl)phenyl)ethynyl) benzamide], in assay [1] (setting [2]), the concentration for half-maximal inhibition (IC50) was determined as 24.2 nM. Also, in the assay on E. coli ATCC 25922, the minimal inhibitory concentration (MIC) amounted to 8 µg/mL (≈ 16.5 µM).

For the compound `C[C@H](O)c1nccn1Cc1coc(-c2ccc(C#Cc3ccc(CN4CCC(O)CC4)cc3)cc2)n1` [Example 22, (S)-1-(4-((4-(4-((2-(1-hydroxyethyl)-1H-imidazol-1-yl)methyl)oxazol-2-yl)phenyl)ethynyl)benzyl)piperidin-4-ol], in assay [1] (setting [2]), the concentration for half-maximal inhibition (IC50) worked out at 98.9 nM. In addition, the MIC in the assay with E. coli ATCC 25922 was determined as 4 µg/mL (≈ 8.29 µM).

With `C[C@H](O)c1nccn1Cc1cc(-c2ccc(C#Cc3ccc(CN4CCOC(CC(=O)O)C4)cc3)cc2)on1` (stereo partly drawn) [Example 93, 2-(4-(4-((4-(3-((2-((S)-1-hy-droxyethyl)-1H-imidazol-1-yl)methyl)isoxazol-5-yl)phenyl)ethynyl)benzyl)morpholin-2-yl) acetic acid], the IC50 in assay [1] (setting [2]) was 16.2 nM. Also, the minimum inhibitory concentration (MIC) with E. coli ATCC 25922 came to 8 µg/mL (≈ 15.2 µM).

Take `C[C@H](O)c1nccn1Cc1cc(-c2ccc(C#Cc3ccc(CN4CCOC(C(=O)O)C4)cc3)cc2)on1` (stereo partly drawn) [Example 47, 4-(4-((4-(3-((2-((S)-1-hydroxyethyl)-1H-imidazol-1-yl)methyl)isoxazol-5-yl)phenyl)ethynyl)benzyl)morpholin-2-carboxylic acid]: the IC50 in assay [1] was 11.1 nM. Besides, the MIC in the assay with E. coli ATCC 25922 is 8 µg/mL (≈ 15.6 µM).

On to `C[C@H](O)c1nccn1Cc1cc(-c2ccc(C#Cc3ccc(C(=O)NCC(C)(C)O)cc3)cc2)on1` [Example 72, (S)-N-(2-hydroxy-2-methyl-propyl)-4-((4-(3-((2-(1-hydroxyethyl)-1H-imidazol-1-yl)methyl)isoxazol-5-yl)phenyl)ethynyl) benzamide], for which, in assay [1] (setting [2]), the IC50 came out at 26.6 nM. Further, the MIC in the assay on E. coli ATCC 25922 is 8 µg/mL (≈ 16.5 µM).

In the case of `C[C@H](O)c1nccn1Cc1cc(-c2ccc(C#Cc3cccc(CCC(=O)O)c3)cc2)on1` [Example 109, (S)-3-(3-((4-(3-((2-(1-hydroxyethyl)-1H-imidazol-1-yl)methyl)isoxazol-5-yl)phenyl)ethynyl)phenyl)propanoic acid], the half-inhibitory concentration (IC50) in assay [1] (setting [2]) was determined as 23.4 nM. Moreover, in the assay on E. coli ATCC 25922, the minimal inhibitory concentration (MIC) came out at 4 µg/mL (≈ 9.06 µM).

`C[C@H](O)c1nccn1Cc1cc(-c2ccc(C#Cc3ccc(CN4CC(C(=O)O)C4)cc3)cc2)on1` [Example 95, (S)-1-(4-((4-(3-((2-(1-hydroxyethyl)-1H-imidazol-1-yl)methyl)isoxazol-5-yl)phenyl)ethynyl)benzyl)azetidin-3-carboxylic acid]: the 50% inhibitory concentration (IC50) in assay [1] (setting [2]) worked out at 19.9 nM. Moreover, the MIC in the assay on E. coli ATCC 25922 is 8 µg/mL (≈ 16.6 µM).
